Measured values taken from ChEMBL document CHEMBL3044816, “Mode of Action of Herbicidal N-Benzyl-4-chloro-N-isobutyl-2-pentenamides” (J Pestic Sci, 2002).
Activity calls are given as the source filed them. No cut-off for these calls is given here.

How the values were obtained:
Echinochloa crus-galli = test: Herbicidal activity against Echinochloa crus-galli (barnyard grass) assessed as damage of seedlings; assay type: functional
Scenedesmus acutus [1] = test: Phytotoxic activity against Scenedesmus acutus assessed as phytoene accumulation; assay type: functional, organism-based
Scenedesmus acutus [2] = test: Phytotoxic activity against Scenedesmus acutus assessed as zeta-carotene accumulation; assay type: functional, organism-based

SMILES | ED90 (Echinochloa crus-galli) [gAi/ha] | other results
CC(Cl)/C=C/C(=O)N(Cc1ccc(C(F)(F)F)cc1)CC(C)C (stereo unspecified) | 31 | –
CC(Cl)/C=C/C(=O)N(Cc1ccc(S(C)(=O)=O)cc1)CC(C)C (stereo unspecified) | >1000 | –
CC(Cl)/C=C/C(=O)N(Cc1ccc(C#N)cc1)CC(C)C (stereo unspecified) | 16 | –
CNc1cnn(-c2cccc(C(F)(F)F)c2)c(=O)c1Cl | – | Activity (Scenedesmus acutus [1]): Active
COc1ccc(C(=O)c2cccc(C)c2)cc1C | – | Activity (Scenedesmus acutus [2]): Active
CC(Cl)/C=C/C(=O)N(Cc1ccc(Cl)cc1)CC(C)C (stereo unspecified) | 16 | –
